# Experimental data: patent EP2686338B1, “FUNCTIONALIZED BIOMATERIALS FOR TISSUE REGENERATION” (Nanomed3d S.r.l., priority 2011, dated 2018)
# “Also recorded” adds a separate entry of the source. Residues, ends and D or L forms follow the SMILES beside them.
# How the values were obtained:
# mouse NSC = assay: NSC differentiation on exposure to soluble heptapeptides (immunofluorescence); type: cell-based; settings: 12 DIV; peptide 0.1 mg/ml in media; Cultrex and Laminin coated wells; vs untreated NSCs, p<0.05
# Description: In vitro tests were performed as previously described (8), in order to assess whether the heptapeptides obtained of the present invention influence NSCs differentiation.
# Murine cells (at a concentration of 2x10^4 cells/cm^2) were seeded in each well (96 multi-well plate) previously coated with Cultrex-BME® substrate (R&D systems) (1:100 dilution in basal medium, overnight incubation) or with Laminin (Roche) (1:5 dilution in PBS 1x, pH 7.4, overnight incubation).
# Initially, cells were cultured with basal medium supplemented with βFGF (10 ng/ml), added to enhance neuronal progeny differentiation. At 3 days in vitro (DIV), βFGF medium was replaced with Leukemia Inhibitory Factor (LIF, Chemicon) (20 ng/ml) and Brain Derived Neurotrophic Factor (BDNF, Peprotech) (20 ng/ml). Fresh medium was added every three days. The chosen peptides were dissolved in all cell culture media (but not in the coatings) at a concentration of 0.1 mg/ml.
# Immunofluorescence tests were performed for assaying the phenotypes of the differentiated murine NSC progenies. The following antibodies were used: rabbit polyclonal against GFAP (1:500, DakoCytomation) for astrocytes and mouse monoclonal against βIII-Tubulin (1:500, Covance) for neurons. Secondary Abs were Goat anti Mouse Alexa 488 (1:1000, Molecular Probes), Goat anti Mouse Cy3 (1:1000, Jackson Immunoresearch), Cell nuclei were counterstained with DAPI (Molecular Probes). Quantitative analyses were performed by counting 100-300 cells for each of 9 randomly chosen fields over a total of 3 independent experiments.
# Values, reported as means ± standard error of the mean (Figure 1A).
# human NSCs [1] = assay: Imaging and cell proliferation (MTS) assay on assembled scaffolds, human NSCs; type: cell-based
# Description: (§1) In vitro tests were performed as previously described (8), in order to assess whether the biomaterials (assembled hydrogels) obtained with the SAPs of the present invention influenced NSCs adhesion, survival and/or differentiation. SAPeptides (30 µl for each well at a concentration of 10 mg/ml) were assembled into 96 multiwells two hours before cell. Cells (at a concentration of 2x10^4 cells/cm^2) were seeded on the top-surface of each assembled scaffold. Initially, cells were cultured with basal medium supplemented with βFGF (10 ng/ml), added to enhance neuronal progeny differentiation. At 3 days in vitro (DIV), βFGF medium was replaced with Leukemia Inhibitory Factor (LIF, Chemicon) (20 ng/ml) and Brain Derived Neurotrophic Factor (BDNF, Peprotech) (20 ng/ml). Fresh medium was added every three days. For both viability and differentiation assays positive and negative controls consisted of Cultrex-BME® substrate (R&D systems) (1:100 dilution in basal medium) and untreated bottom well surfaces respectively. Cell viability was quantified via CellTiter 96® Aqueous Proliferation Assay (Promega) at 7 DIV as recommended in the Promega protocol. After calibrating the linear response between the cell number and absorbance values, proliferated cell populations were quantified (n=5) by using a Vmax microplate reader (Molecular Devices) at 490nm wavelength. Values, reported as means ± standard error of the mean, were blanked to their respective controls consisting of same substrates and cell culture media without cells.
# [2] = test system: acute contusive spinal cord injury (SCI); assay: Acute contusive spinal cord injury model, histology and morphometrical quantification; type: in vivo, Sprague-Dawley rats; settings: 8 weeks after injury
# Description: (§2) 20 female Sprague-Dawley rats weighting 200-250 gr (Charles River Laboratories) were randomly divided into two groups: 1) spinal cord injured animals treated with Ac-FAQ and 2) spinal cord injured animals treated with the saline solution (control group). Rats were anesthetized with an intraperitoneal injection of ketamine (80 mg/kg) and xylazine (10 mg/kg). After laminectomy at the T9-T10 level, the exposed spinal cord was lesioned (Figure 8A1) by a 10-gram rod dropped from a height of 25 mm by using a MASCIS Impactor device (WM Keck Center for Collaborative Neuroscience, Rutgers University), as previously described 33. Immediately after injury, animals were injected with Ac-FAQ (1% acqueous solution) or the saline solution using an Hamilton syringe held via a micromanipulator (Figure 8A2). The biomaterial or the distilled water was delivered into the lesion site at distances of 500 µm, and at each interval two injections of 0,5 µl each were made, for a total dose of 3 µl. After injection, the muscles were sutured and the skin was closed with wound clips. […]
# Quantitative analysis was performed on longitudinal sections of rat spinal cords, spanning between T7 and T12 and including the injury site (T9-T10).
# The presence of axons expressing Gap-43 and βIII within the cyst was investigated. Gap-43 positive fibers were quantified and the relative value of GAP-43 immunopositive area was expressed as percentage of the total cyst area.
# Injured tissue was quantified in seven-to-sixteen longitudinal sections per animal, depending on the cyst extent. […] Sections were stained with hematoxylin/eosin and images were captured (Axioplan2 Zeiss microscope) at 5x magnification, then single images were merged, converted into binary pictures and cavities into the injured area were quantified via Image J software (http://rsb.info.nih.gov/ij/). We measured also the whole injured tissue size. […]
# Axon regeneration/sprouting, into the cyst area, was quantified on six longitudinal sections (spaced 160 µm) per animal via GAP-43 (1:200, Millipore) and Cy3-conjugated antibodies (1:1000, Jackson). […]
# murine NSCs [3] = assay: Imaging and cell proliferation (MTS) assay on assembled scaffolds, murine NSCs; type: cell-based
# Description: as §1
# [4] = Rheology (frequency, time and strain sweeps); type: physicochemical
# Description: Rheological properties of the self-assembling peptides of the invention were determined using a controlled stress TA Instruments AR-2000ex rheometer (TA Instruments). A cone-and-plate geometry (acrylic cone diameter, 20 mm; angle, 1°; truncation gap 34 µm) was used. Preliminary strain sweeps were performed for each sample to define the linear viscoelastic region, thus ensuring that moduli were independent of strain. Time sweeps, after addition of PBS (1x) were recorded at 25 C (angular frequency ω=1 Hz) and continued till G' plateaued. Frequency sweeps, both for peptide water solutions and for self-assembled scaffolds, were performed at 25 C with the instrument in oscillatory mode at controlled strain of 1 %. Final strain sweeps was performed at 1Hz oscillatory frequency and at 25 C: onset point of failure was calculated by linear interpolation and subsequent determination of the intersection of the G' modes within the linear region and at material failure respectively.
# human NSCs [5] = assay: Immunofluorescence of differentiated NSC progeny on scaffolds, human NSCs; type: cell-based; settings: 1% scaffold; compared to Cultrex positive control
# Description: as §1
# Immunofluorescence tests were performed for assaying the phenotypes of the differentiated human and murine NSC progenies. In the case of KLP and Ac-KLP just murine NSC have been used. Ac-KLP and KLP scaffolds were prepared at different concentrations in order to display three different stiffness values (viz. 100, 500 and 1000 Pa). This was done to assess the influence of scaffold concentration (and consequently its stiffness) over NSC differentiation. All the other peptides were tested at 1% v/w concentration instead. The following antibodies were used: rabbit polyclonal against GFAP (1:500, DakoCytomation) for astrocytes, mouse monoclonal against βIII-Tubulin (1:500, Covance) for neurons, mouse monoclonal against GalC (1:200, Chemicon) and O4 (1:200, Chemicon) for oligodendrocyes. Secondary Abs were Goat anti Mouse Alexa 488 (1:1000, Molecular Probes), Goat anti Mouse Cy3 (1:1000, Jackson Immunoresearch), Goat anti Rabbit Cy3 (1:1000, Jackson Immunoresearch). […] Quantitative analyses were performed by counting 100-300 cells for each of 9 randomly chosen fields over a total of 3 independent experiments. Phase contrast and fluorescence images of the adhering cells were acquired via Zeiss microscopes Axioplan 2 and ApoTome System at one week after seeding.
# [6] = test system: acute contusive spinal cord injury (SCI); assay: Acute contusive spinal cord injury model, BBB locomotor rating; type: in vivo, Sprague-Dawley rats
# Description: as §2
# Hindlimb recovery was assessed by using the Basso, Beattie, Bresnahan (BBB) Locomotor Rating Scale. Starting from 1 week post-injury, every 3-4 days each rat was observed and recorded with a digital video camera for 4 min in an open field. Rats were evaluated in double-blind experimental settings. […]
# murine NSCs [7] = assay: Immunofluorescence of differentiated NSC progeny on scaffolds, murine NSCs; type: cell-based; settings: 1% scaffold; compared to Cultrex positive control
# Description: as §1
# Immunofluorescence tests were performed for assaying the phenotypes of the differentiated human and murine NSC progenies. In the case of KLP and Ac-KLP just murine NSC have been used. Ac-KLP and KLP scaffolds were prepared at different concentrations in order to display three different stiffness values (viz. 100, 500 and 1000 Pa). This was done to assess the influence of scaffold concentration (and consequently its stiffness) over NSC differentiation. All the other peptides were tested at 1% v/w concentration instead. The following antibodies were used: rabbit polyclonal against GFAP (1:500, DakoCytomation) for astrocytes, mouse monoclonal against βIII-Tubulin (1:500, Covance) for neurons, mouse monoclonal against GalC (1:200, Chemicon) and O4 (1:200, Chemicon) for oligodendrocyes. Secondary Abs were Goat anti Mouse Alexa 488 (1:1000, Molecular Probes), Goat anti Mouse Cy3 (1:1000, Jackson Immunoresearch), Goat anti Rabbit Cy3 (1:1000, Jackson Immunoresearch). Cell nuclei were counterstained with DAPI (Molecular Probes). Quantitative analyses were performed by counting 100-300 cells for each of 9 randomly chosen fields over a total of 3 independent experiments. Phase contrast and fluorescence images of the adhering cells were acquired via Zeiss microscopes Axioplan 2 and ApoTome System at one week after seeding.
smiles,measurement,setting,value
"CC(C)C[C@H](NC(=O)[C@@H]1CCCN1C(=O)[C@H](C)NC(=O)[C@H](CCCNC(=N)N)NC(=O)[C@@H](NC(=O)[C@H](CCC(=O)O)NC(=O)CN)[C@@H](C)O)C(N)=O [#GET, NH4-GETRAPL-CONH2] (H-GETRAPL-NH2)",percentage of differentiated neurons (Beta III Tubulin staining),mouse NSC,significant increase
"CC[C@H](C)[C@H](NC(=O)[C@H](C)NC(=O)[C@@H](N)Cc1c[nH]cn1)C(=O)N[C@@H](Cc1ccc(O)cc1)C(=O)N1CCC[C@H]1C(=O)N[C@@H](CCCNC(=N)N)C(=O)N[C@@H](Cc1c[nH]cn1)C(N)=O [#HAI, NH2-HAIYPRH-CONH2]",percentage of differentiated neurons (Beta III Tubulin staining),mouse NSC,significant increase
"CC(C)C[C@H](NC(=O)[C@@H](N)CCCCN)C(=O)N1CCC[C@H]1C(=O)NCC(=O)N[C@@H](Cc1c[nH]c2ccccc12)C(=O)N[C@@H](CO)C(=O)NCC(N)=O [#KLP, NH2-KLPGWSG-CONH2] (H-KLPGWSG-NH2)",percentage of differentiated neurons (Beta III Tubulin staining),mouse NSC,significant increase; also recorded: Highest increase of the neuronal phenotype
"CC(=O)N[C@@H](Cc1ccccc1)C(=O)N[C@@H](C)C(=O)N[C@@H](CCC(N)=O)C(=O)N[C@@H](CCCNC(=N)N)C(=O)N[C@H](C(=O)N1CCC[C@H]1C(=O)N1CCC[C@H]1C(=O)NCC(=O)NCC(=O)NCC(=O)N[C@@H](CC(C)C)C(=O)N[C@@H](CC(=O)O)C(=O)N[C@@H](CC(C)C)C(=O)N[C@@H](CCCCN)C(=O)N[C@@H](CC(C)C)C(=O)N[C@@H](CC(=O)O)C(=O)N[C@@H](CC(C)C)C(=O)N[C@@H](CCCCN)C(=O)N[C@@H](CC(C)C)C(=O)N[C@@H](CC(=O)O)C(=O)N[C@@H](CC(C)C)C(=O)N[C@@H](CCCCN)C(N)=O)C(C)C [Ac-FAQ, Ac-FAQRVPP-GGG-LDLKLDLKLDLK-CONH2] (Ac-FAQRVPPGGGLDLKLDLKLDLK-NH2)","cell morphology, adhesion and spreading",human NSCs [1]; 7 DIV on assembled hydrogels,spread and branched cells
same,"cell viability (MTS, cell population)","human NSCs [1]; 7 DIV, scaffolds 10 mg/ml, vs control, P<0.03, n=5",cell population was bigger
same,Average cumulative cyst area,"[2]; hematoxylin/eosin longitudinal sections, not significant vs controls",28.30 ± 6.70 mm^2
same,"cavities size within the cyst, excluding strands of trabeculae",[2]; not significant vs control,16.77 ± 4.50 mm^2
same,average immunopositivity for GAP-43,[2]; p<0.05 vs saline-injected controls,15.46 ± 1.94 % of the whole cyst area
same,"cell morphology, adhesion and spreading",murine NSCs [3]; 7 DIV on assembled hydrogels,spread and branched cells
same,"cell viability (MTS, cell population)","murine NSCs [3]; 7 DIV, scaffolds 10 mg/ml, vs control, P<0.005, n=5",cell population was bigger
same,G' pre-assembling,"[4]; average storage modulus of SAPeptide solution, 1% w/v, 1-100 Hz, before PBS",5.11 Pa
same,G' post-assembling,"[4]; average storage modulus of jellified scaffold, 1% w/v, 1-100 Hz, after PBS",551.9 Pa
same,Onset point (% strain),"[4]; strain percentage at rupture, strain sweep at 1 Hz, 25 C",22.75%
same,number of neurons,human NSCs [5],significantly higher
same,number of oligodendrocytes,human NSCs [5],significantly higher
same,BBB score,"[6]; 1% aqueous solution, 3 µl into lesion site right after injury, week 6,7 and 8 after injury, mean ± SEM",11.95 ± 0.30
same,hindlimb motor recovery in comparison to controls,"[6]; BBB scale, from week 6 after injury, p<0.05",significant improvement; also recorded: significantly improved locomotor recovery
same,number of neurons,murine NSCs [7],significantly higher
same,number of oligodendrocytes,murine NSCs [7],significantly higher
